pKi: −log10 of the molar value. Counter-ions that a name gives are not always drawn.
Legend:
[1] = molecular target: rhesus (Macaca Mulatta) H3 receptor (Macaca mulatta, UniProt Q865E1); assay: Rhesus H3 radioligand binding assay ([3H]-Methylhistamine displacement, WGA SPA beads); parameters: species or system rhesus monkey (Macaca Mulatta); settings: Table 2; procedure of Example 42
Method: (Genbank #AY231164). Stably transfected cultures were amplified in tissue culture flasks by standard tissue culture methods and induced to express rhesus H3 by exposure to 500 ng/ml tetracycline (Cellgro) for 24 hours. After induction, cells were dissociated from flasks utilizing Cell Stripper (Cellgro). Cells were centrifuged (1K×g, 5 min) and pellet frozen in an ethanol-dry ice bath to disrupt cell membranes. Frozen cell pellet was re-suspended in 5 mM HEPES (pH 7.4, Invitrogen) at 10 ml/1000 cm2 of harvested cells. The cell suspension was drawn through an 18 gauge needle (2-3×) followed by a 23 gauge needle (2-3×) to further disrupt cell membranes. The cell suspension was centrifuged (40K×g, 30 min). Cell membrane pellet was re-suspended in 5 mM HEPES (pH 7.4, Invitrogen) at a final protein concentration of 10 mg/ml. Rhesus H3 membranes were stored under liquid nitrogen prior to use in [3H]-Methylhistamine and GTPγS radioligand binding assays.
Rhesus H3 radioligand binding assay was performed using rhesus H3 receptor membranes (prepared as described above), [3H]-Methylhistamine (Perkin Elmer) and WGA SPA beads (wheat germ agglutinin scintillation proximity assay) beads (Amersham). The assay was performed in 96-well Opti-Plates (Packard). Each reaction contained 50 μl rhesus H3 membranes (20-30 μg total protein), 50 μl WGA SPA beads (0.1 μg) and 50 μl of 83 Ci/mmol [^3H]-Methylhistamine (final concentration 2 nM) and 50 μl of tested compound. The compounds of this invention and/or vehicle were diluted with binding buffer from 10 mM DMSO stocks. Assay plates were sealed with TopSeal (Perkin Elmer) and mixed on shaker (25° C., 1 hour). Assay plates were read on TopCount scintillation counter (Packard). Results were analyzed by Hill transformation and Ki values were determined by Cheng-Prusoff equation.

MCH receptor = MCH receptor (Homo sapiens, UniProt Q99705); assay: MCH receptor [125J]-ligand binding filtration assay; settings: 10 μM test compound; percent inhibition of ligand binding
Sequence of MCH receptor (Q99705 whole entry): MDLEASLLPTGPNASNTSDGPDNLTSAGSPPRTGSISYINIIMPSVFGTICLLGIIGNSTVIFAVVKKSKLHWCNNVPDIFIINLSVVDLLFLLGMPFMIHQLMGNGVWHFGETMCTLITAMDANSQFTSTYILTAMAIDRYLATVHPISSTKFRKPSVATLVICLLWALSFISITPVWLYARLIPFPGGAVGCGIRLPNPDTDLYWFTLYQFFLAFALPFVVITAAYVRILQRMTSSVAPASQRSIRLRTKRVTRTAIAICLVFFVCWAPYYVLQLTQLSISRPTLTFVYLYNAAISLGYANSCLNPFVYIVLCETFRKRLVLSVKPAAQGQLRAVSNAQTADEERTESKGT
Method: The activity of the compounds of this invention at the MCH receptor site, if any was measured by the procedures as set forth below. • Test Compounds The compounds of this invention were stored in a 96-well microtiter plates (1 μL, 10 mM, 100% DMSO). Each of the test sample was diluted with 249 μL of 100% DMSO (dilution 1:250). […] Blank: Assay buffer containing 0.4% DMSO were transferred to the dilution microtiter plates for blanks • Assay Procedure: The filter plates with […] of 0.5% PEI-solution/well were incubated for 2 hours at room temperature. PEI was removed by vacuum filtration just before pipetting (Univac Polyfiltronic/Whatman). The solution of the compound as prepared above (50 μL), or MCH ([…]) or Puffer/DMSO (positive control) were added to 96-well round bottom microtiter plate. Then 50 μl of [^125J]-ligand solution was added followed by 100 μl of membrane suspension. The plates were closed with the lids, and incubated for 60 min. at 25° C. The samples were transferred to GF/B filter plate. The reaction mixture was removed by vacuum filtration, washed 4× with 300 μL ice-cold washing buffer and the washing solution was removed by vacuum filtration. The rubber layer at the bottom of the plate was then removed and the filters were dried over night at room temperature. 25 μL of scintillation cocktail was added and the plates were sealed and, plate frames were added and incubated for 1 hour at room temperature. The radioactivity was then measured, settings ^125J standard, 30 sec./well.

Sequence of rhesus (Macaca Mulatta) H3 receptor (Q865E1 1-445): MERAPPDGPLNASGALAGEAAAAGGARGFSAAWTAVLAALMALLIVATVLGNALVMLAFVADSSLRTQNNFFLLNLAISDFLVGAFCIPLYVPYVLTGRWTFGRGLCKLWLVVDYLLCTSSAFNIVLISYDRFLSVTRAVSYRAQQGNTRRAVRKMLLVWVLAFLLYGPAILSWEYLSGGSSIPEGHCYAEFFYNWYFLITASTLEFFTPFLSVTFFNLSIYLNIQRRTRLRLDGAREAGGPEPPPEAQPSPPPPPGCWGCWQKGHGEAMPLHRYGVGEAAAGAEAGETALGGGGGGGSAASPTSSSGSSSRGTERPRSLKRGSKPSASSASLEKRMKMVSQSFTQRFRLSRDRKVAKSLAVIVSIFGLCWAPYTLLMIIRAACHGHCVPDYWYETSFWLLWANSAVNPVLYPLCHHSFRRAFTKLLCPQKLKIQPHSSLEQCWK

Row | pKi [1] | inhibition at 10 µM (MCH receptor) [%] | Structure (SMILES)
1 | 8.17 | 8.6 | Cc1cc(N2CCC(N3CCCC3C)C2)ccc1NC(=O)C1CCOCC1 (stereo not shown) [Example 24, Tetrahydro-pyran-4-carboxylic acid [2-methyl-4-(2-methyl[1,3′]bipyrrolidinyl-1′-yl)-phenyl]-amide trifluoroacetate]
2 | 9.05 | 1.9 | Cc1cc(N2CC[C@H](N3CCC[C@@H]3C)C2)ccc1NC(=O)CC1CCCC1 [Example 21, 2-Cyclopentyl-N-[2-methyl-4-(2(S)-methyl-[1,3′(S)]bipyrrolidinyl-1′-yl)-phenyl]-acetamide trifluoroacetate]
3 | 7.48 | 10.9 | Cc1cc(N2CCC(N3CCCC3C)C2)ccc1NC(=O)c1ccc(-n2ccccc2=O)o1 (stereo not shown) [Example 32, 5-(2-Oxo-2H-pyridin-1-yl)-furan-2-carboxylic acid [2-methyl-4-(2-methyl-[1,3]bipyrrolidinyl-1′-yl)-phenyl]-amide]
4 | 7.80 | 11.4 | CC1CCCN1C1CCN(c2ccc(NC(=O)C3C[C@@H]4CC[C@H]3C4)cc2)C1 (stereo partly drawn) [Example 29, (1S,4R)-Bicyclo[2.2.1]heptane-2-carboxylic acid [4-(2-methyl-[1,3′]bipyrrolidinyl-1′-yl)-phenyl]-amide trifluoroacetate]
5 | 6.89 | 11.2 | Cc1cc(NC(=O)C2C[C@@H]3CC[C@H]2C3)ccc1N1CCC(N2CCCC2C)C1 (stereo partly drawn) [Example 23, (1S,4R)-Bicyclo[2.2.1]heptane-2-carboxylic acid [3-methyl-4-(2-methyl-[1,3′]bipyrrolidinyl-1′-yl)-phenyl]-amide trifluoroacetate]
6 | 7.75 | -1.3 | Cc1cc(NC(=O)C2CC2)ccc1N1CCC(N2CCCC2C)C1 (stereo not shown) [Example 41, Cyclopropanecarboxylic acid [3-methyl-4-(2-methyl[1,3′]bipyrrolidinyl-1′-yl)-phenyl]-amide trifluoroacetate]
7 | 8.34 | 7 | Cc1nc(C(=O)Nc2ccc(N3CC[C@H](N4CCC[C@@H]4C)C3)cc2C)co1 [Example 28, 2-Methyl-oxazole-4-carboxylic acid [2-methyl-4-(2(S)-methyl-[1,3′(S)]bipyrrolidinyl-1′-yl)-phenyl]-amide trifluoroacetate]
8 | 8.68 | 9.4 | Cc1noc(C)c1C(=O)Nc1ccc(N2CCC(N3CCCC3C)C2)cc1 (stereo not shown) [Example 26, 3,5-Dimethyl-isoxazole-4-carboxylic acid [4-(2-methyl-[1,3′]bipyrrolidinyl-1′-yl)-phenyl]-amide trifluoroacetate]
9 | 8.02 | 4 | Cc1cc(N2CCC(N3CCCC3C)C2)ccc1NC(=O)C1CC1 (stereo not shown) [Example 10, Cyclopropane carboxylic acid [2-methyl-4-(2-methyl-[1,3′]bipyrrolidinyl-1′-yl)-phenyl]-amide trifluoro-acetate]
10 | 7.70 | -2.8 | Cc1cc(N2CCC(N3CCCC3C)C2)ccc1NC(=O)C1C[C@@H]2CC[C@H]1C2 (stereo partly drawn) [Example 12, (1S,4R)-Bicyclo[2.2.1]heptane-2-carboxylic acid [2-methyl-4-(2-methyl-[1,3′]bipyrrolidinyl-1′-yl)-phenyl]-amide trifluoro-acetate]
11 | 7.77 | 2.7 | Cc1cc(NC(=O)C2CCOCC2)ccc1N1CCC(N2CCCC2C)C1 (stereo not shown) [Example 11, Tetrahydro-pyran-4-carboxylic acid [3-methyl-4-(2-methyl[1,3′]bipyrrolidinyl-1′-yl)-phenyl]-amide trifluoro-acetate]
12 | 7.85 | 34.4 | Cc1cc(N2CCC(N3CCCC3C)C2)ccc1NC(=O)c1cc(-c2ccncc2)n[nH]1 (stereo not shown) [Example 37, 5-Pyridin-4-yl-2H-pyrazole-3-carboxylic acid [2-methyl-4-(2-methyl-[1,3′]bipyrrolidinyl-1′-yl)-phenyl]-amide trifluoroacetate]
13 | 8.59 | -2 | Cc1cc(N2CCC(N3CCCC3C)C2)ccc1NC(=O)c1c(C)noc1C (stereo not shown) [Example 18, 3,5-Dimethyl-isoxazole-4-carboxylic acid [2-methyl-4-(2-methyl-[1,3′]bipyrrolidinyl-1′-yl)-phenyl]-amide trifluoroacetate]
14 | 9.40 | -2.1 | Cc1cc(N2CC[C@H](N3CCC[C@@H]3C)C2)ccc1NC(=O)C1CCCCC1 [Example 2, Cyclohexanecarboxylic acid [2-methyl-4-(2S-methyl-[1,3′S]bipyrrolidinyl-1′-yl)-phenyl]-amide trifluoro-acetate]
15 | 7.83 | 1.2 | CC1CCCN1C1CCN(c2ccc(NC(=O)C3CC3)c(C(F)(F)F)c2)C1 (stereo not shown) [Example 30, Cyclopropanecarboxylic acid [4-(2-methyl-[1,3′]bipyrrolidinyl-1′-yl)-2-trifluoromethyl-phenyl]-amide trifluoroacetate]
16 | 8.06 | -2.8 | CC1CCCN1C1CCN(c2ccc(NC(=O)C3CCOCC3)cc2)C1 (stereo not shown) [Example 9, Tetrahydro-pyran-4-carboxylic acid [4-(2-methyl-[1,3′]bipyrrolidinyl-1′-yl)-phenyl]-amide trifluoro-acetate]
17 | 7.76 | 5.6 | Cc1cc(C(=O)Nc2ccc(N3CC[C@H](N4CCC[C@@H]4C)C3)c(C)c2)n[nH]1 (stereo in doubt) [Example 22, 5-Methyl-1H-pyrazole-3-carboxylic acid [3-methyl-4-(2-methyl-[1,3′]bipyrrolidinyl-1′-yl)-phenyl]-amide trifluoroacetate]
18 | 9.40 | 0.7 | Cc1cc(N2CC[C@H](N3CCC[C@@H]3C)C2)ccc1NC(=O)c1c(C)noc1C [Example 1, 3,5-Dimethyl-isoxazole-4-carboxylic acid [2-methyl-4-(2(2S)-methyl-[1,3′(3′S)]bipyrrolidinyl-1′-yl)-phenyl]-amide]

Row | Structure (SMILES) | pKi [1] | inhibition at 10 µM (MCH receptor) [%]
19 | Cc1cc(N2CCC(N3CCCC3C)C2)ccc1NC(=O)C1C(C)(C)C1(C)C (stereo not shown) [Example 17, 2,2,3,3-Tetramethyl-cyclopropanecarboxylic acid [2-methyl-4-(2-methyl-[1,3′]bipyrrolidinyl-1′-yl)-phenyl]-amide trifluoroacetate] | 7.43 | 11.5
20 | Cc1cc(N2CC[C@H](N3CCC[C@@H]3C)C2)ccc1NC(=O)c1ccco1 [Example 19, Furan-2-carboxylic acid [2-methyl-4-(2(S)-methyl-[1,3′(S)]bipyrrolidinyl-1′-yl)-phenyl]-amide trifluoroacetate] | 8.41 | 6
21 | Cc1cc(N2CC[C@H](N3CCC[C@@H]3C)C2)ccc1NC(=O)C1C(C)(C)C1(C)C [Example 16, 2,2,3,3-Tetramethyl-cyclopropanecarboxylic acid [2-methyl-4-(2(S)-methyl-[1,3′(S)]bipyrrolidinyl-1′-yl)-phenyl]-amide trifluoroacetate] | 9.10 | 5.8
22 | Cc1cc(NC(=O)C2C(C)(C)C2(C)C)ccc1N1CCC(N2CCCC2C)C1 (stereo not shown) [Example 27, 2,2,3,3-Tetramethyl-cyclopropanecarboxylic acid [3-methyl-4-(2-methyl-[1,3′]bipyrrolidinyl-1′-yl)-phenyl]-amide trifluoroacetate] | 7.18 | 36
23 | Cc1cc(N2CC[C@H](N3CCC[C@@H]3C)C2)ccc1NC(=O)C1CCCC1 [Example 39, Cyclopentane carboxylic acid [2-methyl-4-(2(S)-methyl-[1,3′ (S)]bipyrrolidinyl-1′-yl)-phenyl]-amide trifluoroacetate] | 9.30 | -7.2

Reference: patent US8088808B2, “Substituted N-phenyl-bipyrrolidine carboxamides and therapeutic use thereof” (Sanofi, priority 2007, dated 2012)
